For twelve compounds, IC50 results are on record in BindingDB's records for doi:10.1016/j.ejmech.2018.10.063 (Saint Petersburg State University, 2019).

A value given as a limit tells only on which side of the number the result lay.

This assay can be described thus: Inhibition of Influenza A virus (A/Puerto Rico/8/34(H1N1)) PA endonuclease infected in MDCK cells assessed as reduction in virus titer treated with cells for 1 hr prior to viral infection for 1 hr followed by compound washout and subsequent compound addition measured after 48 hrs by hemagglutination test.
With `c1cncc(N2CCN=C2c2ccc(C3=NCCN3c3cccnc3)cc2)c1`, the IC50 turned out to be 68 µM.

As for `COc1ccc(N2CCN=C2c2ccc(C3=NCCN3)cc2)cc1`, the IC50 stood at 44 µM. Turning to `Fc1ccc(N2CCN=C2c2ccc(C3=NCCN3)cc2)cc1`, the IC50 was 65 µM. In the case of `c1ccc(N2CCN=C2c2ccc(C3=NCCN3)cc2)cc1`, the IC50 worked out at 30 µM. Turning to `c1ccc(N2CCN=C2c2ccc(C3=NCCN3c3ccccn3)cc2)nc1`, the IC50 worked out at 35 µM.

Regarding `Clc1ccc(N2CCN=C2c2ccc(C3=NCCN3c3ccc(Cl)cc3)cc2)cc1`, the IC50 was 5 µM.

For `COc1ccc(N2CCN=C2c2ccc(C3=NCCN3c3ccc(OC)cc3)cc2)cc1`, the IC50 came out at 16 µM.

With `c1ccc(N2CCN=C2c2ccc(C3=NCCN3c3ccccc3)cc2)cc1`, the IC50 came to 77 µM. On to `c1cnc(N2CCN=C2c2ccc(C3=NCCN3c3cnccn3)cc2)cn1`, for which the IC50 was above 809 µM. Take `Fc1ccc(N2CCN=C2c2ccc(C3=NCCN3c3ccc(F)cc3)cc2)cc1`: the IC50 came to 12 µM. Take `FC(F)(F)c1ccc(N2CCN=C2c2ccc(C3=NCCN3c3ccc(C(F)(F)F)cn3)cc2)nc1`: the IC50 turned out to be 103 µM.

With `C[C@@H](N)C12CC3CC(CC(C3)C1)C2` [(alpha-methyl-1-adamantyl)methylamine], the IC50 came to 11 µM.
